Here are results for 1 molecule from article PMC6934184, “Selective DNA-PKcs inhibition extends the therapeutic index of localized radiotherapy and chemotherapy” (The Journal of Clinical Investigation, 2019).

This test deals with T1, LIMK2 (Homo sapiens, UniProt P53671).
T1 construct: purchased Thermo Fisher Scientific (Life Technologies) SelectScreen
In words: SelectScreen LanthaScreen. Type of test: binding. The conditions noted are these: read-out: % displacement. Summed up: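 Percent values come from Thermo SelectScreen profiling of NU5455, combining activity and binding assays. CSF1R was run in Z'LYTE format at Km app ATP, and CAMK1 in Adapta format with ATP listed at 10.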

T1 sequence (P53671 whole entry): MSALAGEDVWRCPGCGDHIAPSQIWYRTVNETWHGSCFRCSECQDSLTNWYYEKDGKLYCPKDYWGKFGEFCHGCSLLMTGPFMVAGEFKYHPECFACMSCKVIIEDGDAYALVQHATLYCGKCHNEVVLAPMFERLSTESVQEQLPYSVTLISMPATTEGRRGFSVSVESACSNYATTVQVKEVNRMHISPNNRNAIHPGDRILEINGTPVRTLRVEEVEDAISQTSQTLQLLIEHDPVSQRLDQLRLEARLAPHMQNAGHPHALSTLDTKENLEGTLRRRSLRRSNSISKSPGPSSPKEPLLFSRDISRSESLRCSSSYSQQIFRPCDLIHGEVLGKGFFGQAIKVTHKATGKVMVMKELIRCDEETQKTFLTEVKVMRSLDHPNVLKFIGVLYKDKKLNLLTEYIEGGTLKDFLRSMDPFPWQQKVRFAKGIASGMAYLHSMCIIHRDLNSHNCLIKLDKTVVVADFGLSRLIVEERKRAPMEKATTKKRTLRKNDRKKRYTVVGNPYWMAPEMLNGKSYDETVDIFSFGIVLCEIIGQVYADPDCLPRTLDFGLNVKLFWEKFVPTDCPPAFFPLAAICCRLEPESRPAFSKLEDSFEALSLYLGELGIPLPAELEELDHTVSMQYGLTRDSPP

As to `CN(C(=O)CN1CCOCC1)c1ccc2sc3c(-c4cccc5c(=O)cc(N6CC7CCC(C6)O7)oc45)cccc3c2c1` [NU5455], the inhibition at 1 µM came to 1.4%.
